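Exposure lasted 48 hours, with cells grown in 96-well plates and compounds tested at five concentrations. GI50: concentration for 50% inhibition of growth.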 Calls of active or inactive are those of the source. Cut-off read from the data, not from the text of the source: active = GI50 up to about 1.1 µM and inactive = higher.
Legend:
Experiment in all cases: inhibition of tumour cell growth, NCI panel, 48 h
K562 = test system: K562
Malme-3M = test system: Malme-3M
HL-60 = test system: HL-60
TK-10 = test system: TK-10
RXF 393 = test system: RXF 393
CCRF-CEM = test system: CCRF-CEM
UO-31 = test system: UO-31
RPMI-8226 = test system: RPMI-8226
HOP-62 = test system: HOP-62
OVCAR-4 = test system: OVCAR-4
SW-620 = test system: SW-620
SK-MEL-28 = test system: SK-MEL-28
A549 = test system: A549
NCI-H23 = test system: NCI-H23
PC-3 = test system: PC-3
SF-539 = test system: SF-539
SF-268 = test system: SF-268
SNB-75 = test system: SNB-75
SK-MEL-2 = test system: SK-MEL-2
HOP-92 = test system: HOP-92

Measured: GI50

CCCc1cc(COC)c(C#N)c(O)n1
inactive: K562 > 100 µM | Malme-3M > 100 µM | HL-60 > 100 µM | TK-10 > 100 µM | RXF 393 > 100 µM | CCRF-CEM > 100 µM | UO-31 > 100 µM | RPMI-8226 > 100 µM | HOP-62 > 100 µM | OVCAR-4 > 100 µM | SW-620 > 100 µM | SK-MEL-28 > 100 µM | A549 > 100 µM | NCI-H23 > 100 µM | PC-3 > 100 µM | SF-539 65 µM | SF-268 > 100 µM

COc1ccc(CCCNC(=O)Cc2cc(OC)c(OC)cc2CO)cc1OC
inactive: K562 > 100 µM | Malme-3M > 100 µM | HL-60 > 100 µM | TK-10 > 100 µM | SNB-75 > 100 µM | CCRF-CEM > 100 µM | UO-31 > 100 µM | HOP-62 > 100 µM | OVCAR-4 > 100 µM | SW-620 > 100 µM | SK-MEL-28 > 100 µM | A549 > 100 µM | NCI-H23 75 µM | PC-3 > 100 µM | SK-MEL-2 > 100 µM | HOP-92 > 100 µM

C/C(CCn1[nH]c(=O)ccc1=O)=N\OCCCc1ccccc1
inactive: K562 > 100 µM | Malme-3M > 100 µM | HL-60 > 100 µM | TK-10 > 100 µM | RXF 393 > 100 µM | SNB-75 > 100 µM | CCRF-CEM > 100 µM | UO-31 > 100 µM | RPMI-8226 > 100 µM | HOP-62 > 100 µM | OVCAR-4 > 100 µM | SW-620 > 100 µM | SK-MEL-28 > 100 µM | A549 > 100 µM | NCI-H23 > 100 µM | SK-MEL-2 > 100 µM | SF-539 > 100 µM | SF-268 > 100 µM | HOP-92 88.5 µM

CCOC(=O)C1=C(C(=O)c2ccc(C)cc2)C(c2cccc([N+](=O)[O-])c2)C(C(=O)c2ccc(C)cc2)=C(C(=O)OCC)N1
inactive: K562 7.24 µM | Malme-3M 15.1 µM | HL-60 29.8 µM | TK-10 17.2 µM | RXF 393 21 µM | SNB-75 40.9 µM | CCRF-CEM 5.69 µM | UO-31 11.4 µM | HOP-62 19.5 µM | OVCAR-4 25.4 µM | SW-620 14.1 µM | SK-MEL-28 17.8 µM | A549 24.2 µM | NCI-H23 15.8 µM | PC-3 23.2 µM | SK-MEL-2 26.1 µM | SF-539 12.8 µM | SF-268 17.7 µM

Cc1csc2nc3c(cnn3C)c(=S)n12
inactive: K562 > 100 µM | Malme-3M > 100 µM | TK-10 80.5 µM | RXF 393 35.1 µM | SNB-75 28.1 µM | CCRF-CEM 87.7 µM | UO-31 33.5 µM | RPMI-8226 > 100 µM | HOP-62 50 µM | OVCAR-4 > 100 µM | SW-620 > 100 µM | SK-MEL-28 > 100 µM | A549 > 100 µM | NCI-H23 > 100 µM | PC-3 > 100 µM | SK-MEL-2 41.9 µM | SF-539 > 100 µM | SF-268 > 100 µM

CCOC(=O)C1=C(C)C2C3C(=O)OC(=O)C3C1(C)C1C(=O)OC(=O)C21 (stereo not drawn)
inactive: K562 > 100 µM | Malme-3M > 100 µM | HL-60 > 100 µM | TK-10 > 100 µM | RXF 393 > 100 µM | SNB-75 > 100 µM | CCRF-CEM > 100 µM | UO-31 > 100 µM | RPMI-8226 > 100 µM | HOP-62 > 100 µM | OVCAR-4 > 100 µM | SW-620 > 100 µM | SK-MEL-28 > 100 µM | A549 > 100 µM | NCI-H23 > 100 µM | SK-MEL-2 > 100 µM | SF-539 > 100 µM | SF-268 > 100 µM | HOP-92 > 100 µM

Clc1cccc(C2N3CCCCC3[C@@H]3c4[nH]c5ccccc5c4CCN23)c1 (stereo partly drawn)
inactive: K562 23.1 µM | Malme-3M 18.3 µM | HL-60 18.7 µM | TK-10 40.8 µM | RXF 393 27 µM | SNB-75 32.8 µM | CCRF-CEM 19.4 µM | UO-31 24.9 µM | RPMI-8226 29 µM | HOP-62 46.9 µM | OVCAR-4 33.5 µM | SW-620 44.4 µM | SK-MEL-28 22.8 µM | A549 43.9 µM | NCI-H23 22 µM | SK-MEL-2 19.8 µM | SF-539 21.1 µM | SF-268 33.1 µM | HOP-92 62.5 µM

CCOC(=O)N1CC2(C)C=CC1C(C(=O)OC)C2 (stereo not drawn)
inactive: K562 > 100 µM | Malme-3M > 100 µM | HL-60 > 100 µM | TK-10 > 100 µM | RXF 393 > 100 µM | SNB-75 > 100 µM | CCRF-CEM > 100 µM | UO-31 > 100 µM | RPMI-8226 > 100 µM | HOP-62 > 100 µM | OVCAR-4 > 100 µM | SW-620 > 100 µM | SK-MEL-28 > 100 µM | A549 > 100 µM | NCI-H23 > 100 µM | PC-3 > 100 µM | SK-MEL-2 > 100 µM | SF-268 > 100 µM

O=c1c2ccccc2c2c1c1c3ccccc3c(=O)c1c1c3ccccc3c(=O)c21
inactive: K562 > 100 µM | Malme-3M > 100 µM | HL-60 > 100 µM | TK-10 > 100 µM | SNB-75 > 100 µM | CCRF-CEM > 100 µM | UO-31 > 100 µM | RPMI-8226 > 100 µM | HOP-62 > 100 µM | SW-620 > 100 µM | SK-MEL-28 > 100 µM | A549 > 100 µM | NCI-H23 > 100 µM | PC-3 > 100 µM | SK-MEL-2 > 100 µM | SF-539 > 100 µM | SF-268 > 100 µM

COC(=O)C1=CC(O)CCC1c1ccc(OC)cc1 (stereo not drawn)
inactive: K562 > 100 µM | Malme-3M > 100 µM | HL-60 > 100 µM | TK-10 > 100 µM | RXF 393 > 100 µM | SNB-75 > 100 µM | CCRF-CEM > 100 µM | UO-31 > 100 µM | RPMI-8226 > 100 µM | HOP-62 > 100 µM | OVCAR-4 > 100 µM | SW-620 > 100 µM | SK-MEL-28 > 100 µM | A549 > 100 µM | NCI-H23 > 100 µM | SK-MEL-2 > 100 µM | SF-539 > 100 µM | SF-268 > 100 µM | HOP-92 > 100 µM

COc1ccc2c(c1)C1Oc3ccccc3CC1(O)CO2 (stereo not drawn)
inactive: K562 > 100 µM | Malme-3M > 100 µM | TK-10 > 100 µM | SNB-75 > 100 µM | CCRF-CEM > 100 µM | UO-31 > 100 µM | RPMI-8226 > 100 µM | HOP-62 > 100 µM | OVCAR-4 > 100 µM | SW-620 > 100 µM | A549 > 100 µM | NCI-H23 > 100 µM | PC-3 > 100 µM | SK-MEL-2 > 100 µM | SF-539 > 100 µM | SF-268 > 100 µM | HOP-92 > 100 µM

CS/C(=N\S(=O)(=O)c1ccc(Cl)cc1)NCCCCN/C(=N/S(=O)(=O)c1ccc(Cl)cc1)SC
inactive: K562 > 100 µM | Malme-3M > 100 µM | HL-60 > 100 µM | TK-10 > 100 µM | SNB-75 > 10 µM | CCRF-CEM > 100 µM | UO-31 > 100 µM | RPMI-8226 > 100 µM | HOP-62 > 100 µM | OVCAR-4 > 100 µM | SW-620 > 100 µM | SK-MEL-28 95.3 µM | PC-3 > 100 µM | SK-MEL-2 > 100 µM | SF-539 > 100 µM | SF-268 32.5 µM | HOP-92 60.1 µM

CC(=O)C1=C(O)C(N)C2Cc3c(c(O)c4c(O)c(C)ccc4c3C)C(=O)C2(O)C1=O (stereo not drawn)
inactive: K562 1.87 µM | Malme-3M 1.29 µM | HL-60 2.23 µM | TK-10 1.93 µM | RXF 393 4.43 µM | SNB-75 3.11 µM | CCRF-CEM 3.24 µM | UO-31 3.18 µM | RPMI-8226 1.27 µM | HOP-62 1.58 µM | OVCAR-4 5.61 µM | SW-620 2.79 µM | SK-MEL-28 2.06 µM | A549 1.61 µM | NCI-H23 1.75 µM | SK-MEL-2 3.56 µM | SF-539 1.35 µM | SF-268 1.18 µM | HOP-92 1.6 µM

Cc1nnc(N)nc1/C=C\c1ccc(N(C)C)cc1
inactive: K562 86.9 µM | Malme-3M 29.2 µM | HL-60 3.32 µM | TK-10 > 37.6 µM | RXF 393 > 40.1 µM | SNB-75 2.67 µM | CCRF-CEM 10.3 µM | UO-31 3.18 µM | RPMI-8226 9.86 µM | HOP-62 38.5 µM | OVCAR-4 26.5 µM | SW-620 > 64.6 µM | SK-MEL-28 > 45.9 µM | A549 9.79 µM | NCI-H23 7.01 µM | PC-3 30.7 µM | SK-MEL-2 39.8 µM | SF-268 > 34.2 µM

C[N+]1(C)C(c2ccccc2)C(=O)O[B@-]1(F)c1ccccc1 (stereo partly drawn)
inactive: K562 > 100 µM | Malme-3M > 100 µM | HL-60 > 100 µM | TK-10 > 100 µM | SNB-75 60.3 µM | CCRF-CEM > 100 µM | UO-31 > 100 µM | RPMI-8226 > 100 µM | HOP-62 > 100 µM | OVCAR-4 > 100 µM | SW-620 > 100 µM | SK-MEL-28 > 100 µM | A549 > 100 µM | NCI-H23 > 100 µM | PC-3 > 100 µM | SF-268 > 100 µM | HOP-92 88.1 µM
